# Results from patent publication US11771738B2 (Zoetis Services LLC, priority 2018, dated 2023).
# Marks after values point to notes of the source that are not given here.
# Tested on: third stage larvae of Haemonchus contortus
# Test: Haemonchus contortus, Larvae Stage 3 (HcL3) In Vitro Assay
# Format: cell-based
# Settings: Haemonchus contortus third stage larvae in vitro; class mark appended to the Ex # in Table 3
row,SMILES,HcL3 MED
1,CC(C)C[C@H]1C(=O)O[C@H](Cc2ccc(Cc3cccnc3)cc2)C(=O)N(C)[C@@H](CC(C)C)C(=O)O[C@H](C)C(=O)N(C)[C@@H](CC(C)C)C(=O)O[C@H](Cc2ccc(Cc3cccnc3)cc2)C(=O)N(C)[C@@H](CC(C)C)C(=O)O[C@H](C)C(=O)N1C [Example 3-3],3-3^ (Examples with a carrot (^) have HcL3 MED values>1 and ≤3.3 μM)
2,CC(C)C[C@H]1C(=O)O[C@H](Cc2ccc(Cc3nncs3)cc2)C(=O)N(C)[C@@H](CC(C)C)C(=O)O[C@H](C)C(=O)N(C)[C@@H](CC(C)C)C(=O)O[C@H](Cc2ccc(Cc3nncs3)cc2)C(=O)N(C)[C@@H](CC(C)C)C(=O)O[C@H](C)C(=O)N1C [Example 3-14],3-14* (Examples with an asterisk (*) have HcL3 MED values≤1 μM)
3,CC(C)C[C@H]1C(=O)O[C@H](Cc2ccc(Cc3ccccn3)cc2)C(=O)N(C)[C@@H](CC(C)C)C(=O)O[C@H](C)C(=O)N(C)[C@@H](CC(C)C)C(=O)O[C@H](Cc2ccc(Cc3ccccn3)cc2)C(=O)N(C)[C@@H](CC(C)C)C(=O)O[C@H](C)C(=O)N1C [Example 3-27],3-27^ (Examples with a carrot (^) have HcL3 MED values>1 and ≤3.3 μM)
4,CC(C)C[C@H]1C(=O)O[C@H](Cc2ccc(Cc3nc(-c4ccccc4)cs3)cc2)C(=O)N(C)[C@@H](CC(C)C)C(=O)O[C@H](C)C(=O)N(C)[C@@H](CC(C)C)C(=O)O[C@H](Cc2ccc(Cc3nc(-c4ccccc4)cs3)cc2)C(=O)N(C)[C@@H](CC(C)C)C(=O)O[C@H](C)C(=O)N1C [Example 3-36],3-36* (Examples with an asterisk (*) have HcL3 MED values≤1 μM)
5,CC(C)C[C@H]1C(=O)O[C@H](Cc2ccc(Cc3cscn3)cc2)C(=O)N(C)[C@@H](CC(C)C)C(=O)O[C@H](C)C(=O)N(C)[C@@H](CC(C)C)C(=O)O[C@H](Cc2ccc(Cc3cscn3)cc2)C(=O)N(C)[C@@H](CC(C)C)C(=O)O[C@H](C)C(=O)N1C [Example 3-45],3-45* (Examples with an asterisk (*) have HcL3 MED values≤1 μM)
6,Cc1nc(C)c(Cc2ccc(C[C@H]3OC(=O)[C@H](CC(C)C)N(C)C(=O)[C@@H](C)OC(=O)[C@H](CC(C)C)N(C)C(=O)[C@@H](Cc4ccc(Cc5sc(C)nc5C)cc4)OC(=O)[C@H](CC(C)C)N(C)C(=O)[C@@H](C)OC(=O)[C@H](CC(C)C)N(C)C3=O)cc2)s1 [Example 3-52],3-52* (Examples with an asterisk (*) have HcL3 MED values≤1 μM)
7,CC(C)C[C@H]1C(=O)O[C@H](Cc2ccc(Cc3ncccn3)cc2)C(=O)N(C)[C@@H](CC(C)C)C(=O)O[C@H](C)C(=O)N(C)[C@@H](CC(C)C)C(=O)O[C@H](Cc2ccc(Cc3ncccn3)cc2)C(=O)N(C)[C@@H](CC(C)C)C(=O)O[C@H](C)C(=O)N1C [Example 3-73],3-73* (Examples with an asterisk (*) have HcL3 MED values≤1 μM)
8,Cc1nc(Cc2ccc(C[C@H]3OC(=O)[C@H](CC(C)C)N(C)C(=O)[C@@H](C)OC(=O)[C@H](CC(C)C)N(C)C(=O)[C@@H](Cc4ccc(Cc5csc(C)n5)cc4)OC(=O)[C@H](CC(C)C)N(C)C(=O)[C@@H](C)OC(=O)[C@H](CC(C)C)N(C)C3=O)cc2)cs1 [Example 3-76],3-76^ (Examples with a carrot (^) have HcL3 MED values>1 and ≤3.3 μM)

# Same assay, conditions: approximately 96 hours incubation; multiple-resistant field isolate
row,SMILES,HcL3 MED (symbol after Ex#)
1,COc1cc(F)ccc1Cc1ccc(C[C@H]2OC(=O)[C@H](CC(C)C)N(C)C(=O)[C@@H](C)OC(=O)[C@H](CC(C)C)N(C)C(=O)[C@@H](Cc3ccccc3)OC(=O)[C@H](CC(C)C)N(C)C(=O)[C@@H](C)OC(=O)[C@H](CC(C)C)N(C)C2=O)cc1 [Example 2-9],2-9* (Examples with an asterisk (*) have HcL3 MED values≤1 μM)
2,COc1ccccc1Cc1ccc(C[C@H]2OC(=O)[C@H](CC(C)C)N(C)C(=O)[C@@H](C)OC(=O)[C@H](CC(C)C)N(C)C(=O)[C@@H](Cc3ccccc3)OC(=O)[C@H](CC(C)C)N(C)C(=O)[C@@H](C)OC(=O)[C@H](CC(C)C)N(C)C2=O)cc1 [Example 2-12],2-12^ (Examples with a carrot (^) have HcL3 MED values>1 and ≤3.3 μM)
